Earlier results in patent publication US20110305738A1, “Oxygenating Oral Compositions” (priority 2010, published 2011).

Legend:
[1] = not given; remark: listed apart in the source

pH upon dissolution (1% solution): approximately 4.05
pH when solubilized in water (saturated solution): approximately 3.40
water solubility ([1]; at 20 °C): 800 grams per liter
saturated solution concentration of carbamide peroxide ([1]; water at 20° C.): 44.4%
SMILES: NC(N)=O.OO [Carbamide peroxide]
